The values that follow come from patent US20200316178A1 (SHIRE HUMAN GENETIC THERAPIES, INC., priority 2017, published 2020).

Where two headings read alike, the source gives them in different places.

Data set [1] can be described thus: Serum exposure of GCB after SC velaglucerase alfa with IFG (ECL ELISA, 4MU-GPS activity assay). The note with it: 0.07 mg/kg IFGT added to 4 mg/kg GCB.
Experimental: Test articles for dosing were prepared as frozen formulations to the animal facility prior to dosing. Test articles were thawed approximately 1 to 3 hours prior to dosing.
A short description of data set [2]: pH of IFGT dissolved in water. It is filed as physicochemical. The conditions noted are these: 103 mg dissolved in 5 ml of water. As to the method:
When IFGT is dissolved in water, an acidic solution results. […] The pH was adjusted to 6.0 by adding 15 μl 10 M sodium hydroxide to the solution.

The next data set relates to endogenous serum GCB. The note with it: SC dose of 2.5 mg/kg.
Data set [3] deals with T1, GCB (immobilized velaglucerase alfa) (Homo sapiens, UniProt P04062).
T1 sequence (P04062 40-536): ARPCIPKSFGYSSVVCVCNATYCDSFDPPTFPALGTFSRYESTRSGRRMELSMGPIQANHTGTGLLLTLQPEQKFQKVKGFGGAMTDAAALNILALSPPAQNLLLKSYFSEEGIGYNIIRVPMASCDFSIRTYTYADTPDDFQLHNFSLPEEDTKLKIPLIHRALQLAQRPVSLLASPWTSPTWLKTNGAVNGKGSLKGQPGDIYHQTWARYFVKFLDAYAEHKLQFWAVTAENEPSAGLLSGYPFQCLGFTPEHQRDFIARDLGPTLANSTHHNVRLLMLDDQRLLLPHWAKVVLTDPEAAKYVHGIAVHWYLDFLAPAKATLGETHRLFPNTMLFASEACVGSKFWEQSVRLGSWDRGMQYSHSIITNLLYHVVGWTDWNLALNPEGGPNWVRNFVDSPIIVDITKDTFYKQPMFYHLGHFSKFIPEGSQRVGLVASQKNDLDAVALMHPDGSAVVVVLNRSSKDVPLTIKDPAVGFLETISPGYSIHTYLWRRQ
As to the method:
All SPR experiments were performed on a Biacore S-200 by a single-cycle kinetics method. For experiments at pH 7.4, 2 mg/ml GCB was diluted into the GE acetate pH 5.0 buffer to the final concentration of 100 μg/ml. The immobilization running buffer was 10 mM HEPES, 5 mM EDTA, 0.01% P-20, pH 7.4. This buffer was used directly in the binding assay subsequently.
For experiments at pH 5.0, 2 mg/ml GCB was diluted into the GE acetate pH 5.0 buffer to the final concentration of 100 μg/ml. The immobilization running buffer was 20 mM sodium phosphate, 2.7 mM potassium chloride, 137 mM sodium chloride, 5 mM tartrate, 0.01% P-20, pH 5.0. […] GCB was immobilized on a CM5 chip using a normal […] coupling procedure. The target immobilization level was 4000 RU.
For Biacore experiments at pH 7.4, the concentration range was 0.39-100 nM. The total was 9 points with 2-fold serial dilution. For Biacore experiments at pH 5.0, the concentration range was 0.39-100 nM. The total was 9 points with 2-fold serial dilution.
The conditions for the binding assay were as follows: 30 μl/min flow rate, 120 s association time, 600 s dissociation time, and 3 M magnesium chloride as the regeneration reagent.
For each of the pH 5.0 and pH 7.4 studies, two runs were performed. Black lines represent actual data and red lines represent model fitting.

In data set [4] the target is T2, VPRIV (a form of GCB) in human serum (Homo sapiens, UniProt P04062).
T2 construct: Velaglucerase is secreted as a monomeric glycoprotein of approximately 63 kDa; Velaglucerase is composed of 497 amino acids; made in house
T2 sequence (P04062 40-536): T1 sequence (P04062 40-536)
The experiment in a line: VPRIV activity in human serum at 37° C. with IFG. Type of data set: in vitro ADME. The note with it: 10 nM VPRIV, human serum 37° C.; for VPRIV activity remaining: 60 minutes. As to the method:
Enzyme activity was measured using the cleavage of the 4-methylumbelliferone b-D-glucopyranoside substrate.

The target of data set [5] is T3, GCB (Homo sapiens, UniProt P04062).
T3 sequence (P04062 40-536): T1 sequence (P04062 40-536)
In words: SDS-PAGE of GCB with pH-adjusted isofagomine. Type of data set: physicochemical. The conditions noted are these: isofagomine pH adjusted to 6.0, GCB from 100 mg/ml, Day 0 and Day 3. As to the method: (§1) Samples were denatured at 37° C. for 15 minutes. SDS-PAGE was run on an 8-16% Novex™ Tris-glycine pre-cast gel. 50 mM dithiothretiol was used as the reducing agent.
The results are shown in FIG. 4A for Day 0 and in FIG. 4B for Day 3.

For data set [6], the target named is T3, GCB. In words: SDS-PAGE of GCB with non-pH-adjusted isofagomine. It is filed as physicochemical. The conditions noted are these: non-pH-adjusted isofagomine added to GCB. The method, then:
as §1

Regarding `O=C(O)[C@H](O)[C@@H](O)C(=O)O.OCC1CNCC(O)[C@@H]1O` [Isofagomine tartrate, isofagomine tartrate], in data set [1] (4MU-GPS substrate), the “overall enzyme activity of GCB in serum” value was “substantially increased”. Further, the “amount of GCB in serum” value in data set [1] (ECL ELISA) is listed as “substantially increased”. Besides, in data set [2], the “pH of the solution” value was 3.25. The “GCB activity in the serum” value in the data set on endogenous serum GCB is “increase GCB activity in the serum above the upper limit of normal”.
With `OC[C@H]1CNC[C@@H](O)[C@@H]1O` [IFG, isofagomine], the ka turned out to be 12500 M⁻¹ s⁻¹ in data set [3] (First Run at pH 5.0), 242000 M⁻¹ s⁻¹ in data set [3] (First Run at pH 7.4), 9883 M⁻¹ s⁻¹ in data set [3] (Second Run at pH 5.0) and 280000 M⁻¹ s⁻¹ in data set [3] (Second Run at pH 7.4). Also, the kd in data set [3] (First Run at pH 5.0) was 0.00314 s⁻¹; in data set [3] (First Run at pH 7.4), 0.002274 s⁻¹; in data set [3] (Second Run at pH 5.0) it was 0.001954 s⁻¹; in data set [3] (Second Run at pH 7.4), 0.001785 s⁻¹. The VPRIV activity remaining entry in data set [4] (1 nM IFG) and in data set [4] (10 nM IFG) was “around 40%” each time. Also, the “loss of VPRIV activity” value in data set [4] (30 nM IFG (3× molar ratio) and higher) is “prevented most of the loss of activity”. Also, the “smaller bands (<50 kDa) on SDS-PAGE” value at GCB [5] was “No smaller bands having sizes of less than 50 kDa were observed”. Moreover, the results for the “fragments of GCB on SDS-PAGE” value on GCB [6] (4° C.) and at GCB [6] (−80° C.) were “yielded fragments of GCB” and “not”, respectively.
